Like-named read-outs stand apart in the source and are kept apart here.
Legend:
[1] = system: rat middle cerebral artery occlusion (MCAO) stroke model; experiment: Rat middle cerebral artery occlusion (MCAO) stroke model, different doses; format: in vivo; settings: for Infarct weight: tail vein injection, 24 h of reperfusion, TTC stain; for Inhibition rate of cerebral infarction: versus model group infarct range
Method: By rat middle cerebral artery occlusion (MCAO) stroke model (also called cerebral ischemia model), the therapeutic effect of the compound of the present invention on ischemic stroke in SD rats at different doses was studied. Male SD rats were selected and induced anesthesia by 2-3.0% isoflurane. The middle cerebral artery was blocked by the thread plug method, resulting in rat ischemia model; the ischemic rats were placed at room temperature and kept their body temperature being 37° C. 60 minutes after ischemia onset, the rats were scored by Bederson neurobehavioral scale to determine whether the model was successfully made. 90 min after ischemia onset, the thread plug was pulled out for reperfusion. […] After 24 h of reperfusion, the animals were scored by NSS scale to evaluate neurological deficit. And then the animals were dissected, brains were collected and subjected to TTC stain. […] The percentage of the weight of the infarct tissue based on the weight of the whole brain was regarded as the infarct range (%), and the inhibition rate (%) of each drug treatment group was calculated based on the infarct range.

[2] = system: fibrosarcoma cell line HT1080; experiment: Ferroptosis screening model (MTT method), Erastin-induced ferroptosis; format: cell-based, human
Outline: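 HT1080 cells adhered 24 h, then received compound plus Erastin ([…] final) for 72 h at 37 °C, 5% CO2, in triplicate. Viability by MTT with SDS solubilisation, absorbance at 570 nm; inhibition of ferroptosis fitted to give EC50.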

[3] = positive drug butylphthalide 10 mg/kg
[4] = Homo sapiens, HT-1080, 72 h, HT1080, ferroptosis inducer Erastin, 72 h, average of three tests, read-out: EC50

SMILES	EC50 [2, 4]	also measured
CCCCC1OC(=O)c2ccccc21 (centres unmarked) [Positive drug, butylphthalide, reference compound]		NSS score ([1]; positive drug butylphthalide 10 mg/kg, after 24 h of reperfusion): 8.500 ± 1.401; Infarct weight [1, 3]: 0.193 ± 0.075 g; Infarct range ([1]; positive drug butylphthalide 10 mg/kg, infarct tissue weight as % of whole brain weight): 13.292 ± 4.476 %; Inhibition rate of cerebral infarction [1, 3]: 24.477%
CC(c1ccc(N2CCN(C)CC2)cc1)c1ccc2c(c1)Nc1ccccc1S2 (centres unmarked) [Compound A38, 2-(1-(4-(4-methylpiperazin-1-yl)phenyl)ethyl)-10H-phenothiazine]	0.5 nM	EC50 ([2]; Homo sapiens, HT-1080, HT1080, Erastin, read-out: EC50 value): ~1 nM; Infarct weight ([1]; high dose 2.5 mg/kg): 0.126 ± 0.072 g; Inhibition rate of cerebral infarction ([1]; high dose 2.5 mg/kg): 50.885%; Infarct weight ([1]; low dose 0.5 mg/kg): 0.170 ± 0.041 g; Inhibition rate of cerebral infarction ([1]; low dose 0.5 mg/kg): 31.209%; Infarct weight ([1]; medium dose 1.25 mg/kg): 0.152 ± 0.064 g; Inhibition rate of cerebral infarction ([1]; medium dose 1.25 mg/kg): 38.968%; Infarct weight ([1]; very low dose 0.2 mg/kg): 0.187 ± 0.078 g; Inhibition rate of cerebral infarction ([1]; very low dose 0.2 mg/kg): 27.307%
CCOC(=O)c1cccc(C(C)c2ccc3c(c2)Nc2ccccc2S3)c1 (centres unmarked) [Compound A14, 3-(1-(10H-phenothiazin-2-yl)ethyl)benzoic acid ethyl ester]	5 nM	
COc1ccc(C(C)c2ccc3c(c2)Nc2ccccc2S3)cc1OC (centres unmarked) [Compound A47, 2-(1-(3,4-dimethoxylphenyl)ethyl)-10H-phenothiazine]	7 nM	
C=C(c1ccc(S(=O)(=O)N2CCCC2)cc1)c1ccc2c(c1)Nc1ccccc1S2 [Compound B54, 2-(1-(4-(pyrrolin-1-ylsulfonyl)phenyl)ethenyl)-10H-phenothiazine]	32 nM	
CC(c1cncc(C#N)c1)c1ccc2c(c1)Nc1ccccc1S2 (centres unmarked) [Compound A73, 5-(1-(10H-phenothiazin-2-yl)ethyl)nicotinonitrile]	5 nM	
COC(=O)c1ccc(C(C)c2ccc3c(c2)Nc2ccccc2S3)cc1 (centres unmarked) [Compound A36, 4-(1-(10H-phenothiazin-2-yl)ethyl)benzoic acid methyl ester]	13 nM	
COc1cc(C(C)c2ccc3c(c2)Nc2ccccc2S3)ccc1C (centres unmarked) [Compound A48, 2-(1-(3-methoxyl-4-methylphenyl)ethyl)-10H-phenothiazine]	22 nM	
CC(c1ccc2c(c1)Nc1ccccc1S2)c1ccc(F)c(OCc2ccccc2)c1 (centres unmarked) [Compound A55, 2-(1-(3-(benzyloxyl)-4-fluorophenyl)ethyl)-10H-phenothiazine]	59 nM	
CC(c1ccc(N(c2ccccc2)c2ccccc2)cc1)c1ccc2c(c1)Nc1ccccc1S2 (centres unmarked) [Compound A37, 4-(1-(10H-phenothiazin-2-yl)ethyl)-N,N-diphenylphenylamine]	323 nM	
CC(C)Oc1ccc(C(C)c2ccc3c(c2)Nc2ccccc2S3)cc1 (centres unmarked) [Compound A33, 2-(1-(4-isopropoxylphenyl)ethyl)-10H-phenothiazine]		EC50 ([2]; HT1080, ferroptosis inducer Erastin, 72 h, average of three tests, read-out: EC50): 17 nM

Continued, in another order:

EC50 [2, 4]	SMILES	also measured
271 nM	CC(c1ccc2c(c1)Nc1ccccc1S2)S(=O)(=O)N1CCC(NC(=O)OC(C)(C)C)CC1 (centres unmarked) [Compound C37, t-butyl (1-((1-(10H-phenothiazin-2-yl)ethyl)sulfonyl)piperidin-4-yl)carbamate]	
178 nM	CCCCN1CCN(S(=O)(=O)C(C)c2ccc3c(c2)Nc2ccccc2S3)CC1 (centres unmarked) [Compound C58, 2-(1-((4-butylpiperazin-1-yl)sulfonyl)ethyl)-10H-phenothiazine]	
182 nM	CC(c1ccc2c(c1)Nc1ccccc1S2)S(=O)(=O)N1CCN(c2ccc(C#N)cc2)CC1 (centres unmarked) [Compound C53, 4-(4-((1-(10H-phenothiazin-2-yl)ethyl)sulfonyl)piperazin-1-yl)benzonitrile]	
129 nM	CC(c1ccc2c(c1)Nc1ccccc1S2)S(=O)(=O)N1CCN(Cc2ccc(Cl)cc2)CC1 (centres unmarked) [Compound C36, 2-(1-((4-(4-chlorobenzyl)piperazin-1-yl)sulfonyl)ethyl)-10H-phenothiazine]	
34 nM	CC(c1ccc2c(c1)Nc1ccccc1S2)S(=O)(=O)N1CCN(C)CC1 (centres unmarked) [Compound C2, 2-(1-((4-methylpiperazin-1-yl)sulfonyl)ethyl)-10H-phenothiazine]	
129 nM	CC(c1ccc2c(c1)Nc1ccccc1S2)S(=O)(=O)N1CCN(c2cnccn2)CC1 (centres unmarked) [Compound C57, 2-(1-((4-(pyrazin-2-yl)piperazin-1-yl)sulfonyl)ethyl)-10H-phenothiazine]	
